The values below are quoted from earlier work in article PMC10675597, “Design, Synthesis, and Antisickling Investigation of a Thiazolidine Prodrug of TD-7 That Prolongs the Duration of Action of Antisickling Aromatic Aldehyde” (Pharmaceutics, 2023).

Details of data set [1]: method as in PMID 34657559, PMID 9490025, PMID 10376886, PMID 11154732. The settings on record: cited from earlier work.
On the set-up of data set [2]: method as in PMID 15180869. As to conditions: cited from earlier work.

`O=Cc1ccc(CO)o1` [5-HMF, 5-hydroxymethylfurfural]: the “oral bioavailability (in words)” value in data set [1] is “low oral bioavailability”.

On to `CCOC(=O)[C@H]1CSC(c2ccc(O)c(OC)c2)N1` (some centres unmarked) [MX-1520], for which the “oral bioavailability compared to vanillin (in words)” value in data set [2] is reported as “much better oral bioavailability”. In data set [2] (oral, Sprague-Dawley rats), the peak concentration (Cmax) is 9000 ng/mL; the “Cmax, fold greater than vanillin” value is recorded as 4 fold; the “relative bioavailability, fold higher than vanillin” value is listed as 30 fold.

Consider `COc1cc(C=O)ccc1O` [vanillin], for which the Cmax in data set [2] (oral, Sprague-Dawley rats) is recorded as 2000 ng/mL. Further, the “oral bioavailability (in words)” value in data set [1] is “low oral bioavailability”.

Take `CC(C)n1nccc1-c1ncccc1COc1cccc(O)c1C=O` [Voxelotor]: the “oral bioavailability (in words)” value in data set [1] is “satisfactory oral bioavailability”.

The Cmax is the highest concentration seen after dosing.
